Laboratory results: publication PMC9558053, “Development of a novel high-throughput screen for the identification of new inhibitors of protein S-acylation” (The Journal of Biological Chemistry, 2022)

Tests used:
[1] = molecular target: T1, purified human zDHHC2 (Homo sapiens, UniProt Q9UIJ5); experiment: In vitro SNAP25 S-acylation by purified zDHHC2, copper-free click chemistry, ELISA; format: biochemical; settings: for inhibition at 3 µM / inhibition at 10 µM: in vitro ELISA, UoS, read-out: zDHHC2-mediated SNAP25 S-acylation inhibition (%); for inhibition at 3 µM: compound 3 μM; for inhibition at 10 µM: compound 10 μM; for IC50 / SNAP25 S-acylation by purified zDHHC2, SDS-PAGE and Western blotting: in vitro; for IC50: ELISA, concentrations 0.3 to 30 μM, read-out: zDHHC2-mediated substrate (SNAP25) S-acylation IC50 (95 CI); for SNAP25 S-acylation by purified zDHHC2, SDS-PAGE and Western blotting: selected samples at 3 or 10 μM
T1 construct: StrepII (C); made in house; host or cells: Sf9 TriEX insect cells, baculovirus
T1 sequence (Q9UIJ5 1-367): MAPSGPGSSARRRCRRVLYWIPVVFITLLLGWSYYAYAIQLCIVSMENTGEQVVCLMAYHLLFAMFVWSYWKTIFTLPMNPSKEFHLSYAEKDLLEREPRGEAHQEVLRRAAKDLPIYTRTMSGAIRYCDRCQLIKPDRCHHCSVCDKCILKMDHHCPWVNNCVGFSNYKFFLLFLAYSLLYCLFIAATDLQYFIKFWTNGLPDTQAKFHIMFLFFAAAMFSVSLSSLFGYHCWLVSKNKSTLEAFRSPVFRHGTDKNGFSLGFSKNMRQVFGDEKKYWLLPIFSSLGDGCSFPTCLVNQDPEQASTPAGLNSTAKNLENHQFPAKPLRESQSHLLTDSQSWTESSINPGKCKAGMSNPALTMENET

[2] = molecular target: T2, human zDHHC3 (Homo sapiens, UniProt Q9NYG2); experiment: GFP-SNAP25b S-acylation in HEK293T cells co-expressing zDHHC3; format: cell-based; settings: in cellulo HEK293T, compound 25 μM; for inhibition at 25 µM: HEK-293T, read-out: SNAP25 S-acylation inhibition (%), zDHHC3
T2 construct: expressed in transfected cells; host or cells: HEK293T
T2 sequence (Q9NYG2 1-299): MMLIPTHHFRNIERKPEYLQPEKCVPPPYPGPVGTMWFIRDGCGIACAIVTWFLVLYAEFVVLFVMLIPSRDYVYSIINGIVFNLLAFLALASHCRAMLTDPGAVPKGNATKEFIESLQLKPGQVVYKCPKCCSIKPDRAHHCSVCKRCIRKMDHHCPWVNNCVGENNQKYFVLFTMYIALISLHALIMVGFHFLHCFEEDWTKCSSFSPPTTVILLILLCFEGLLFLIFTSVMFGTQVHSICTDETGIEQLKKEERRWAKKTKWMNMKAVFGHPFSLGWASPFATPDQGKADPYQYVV
Method: (§1) We next investigated whether the identified compounds were effective at inhibiting zDHHC enzyme isoforms other than zDHHC2 (Fig. 6 and Table 1). […] We therefore treated cells coexpressing GFP-SNAP25 and each of these zDHHC enzymes with 25 μM of TTZ-1 and TTZ-2 and studied the subsequent effect on SNAP25 S-acylation. […] Importantly, the level of enzyme expression was unaffected by the compounds. […] As any major differences in the expression levels of the different enzymes could in theory contribute to the apparent differential effects of TTZ-1 and TTZ-2, we directly compared the expression of zDHHC2, zDHHC3, zDHHC7, zDHHC15, and zDHHC17 when transfected in HEK293T cells together with GFP-SNAP25.
Figure 6 Activity of TTZ-1 and TTZ-2 against SNAP25 S-acylation by human zDHHC2, zDHHC3, zDHHC7, zDHHC15, and zDHHC17 expressed in mammalian cells.A–E, HEK293T cells were transfected with a plasmid encoding GFP-SNAP25b together with either a control plasmid pEF-BOS-HA (pEF) or a plasmid encoding either HA-tagged human zDHHC2 (zD2) (A), zDHHC3 (zD3) (B), zDHHC7 (zD7) (C), zDHHC15 (zD15) (D), or zDHHC17 (zD17) (E) for 24 h. Cells were then preincubated for 4 h with TTZ-1 or TTZ-2 (25 μM final) or DMSO control before metabolic labeling with 100 μM C16:0-azide for 4 h. Cells were lysed, and proteins having incorporated C16:0-azide were labeled by click chemistry with an alkyne-IR800 dye. Protein samples were then resolved by SDS-PAGE and transferred to nitrocellulose membranes that were first stained with an infrared-680 total protein stain. Membranes were then destained and probed with an anti-HA antibody (IR680), followed by an anti-GFP antibody (IR680). Representative images are shown, and panels are presented in the following order (from top to bottom): click chemistry signal (Click [IR800]), GFP and HA immunoblots (IR680), and Total Protein Stain (IR680). […] Three independent experiments were performed either in duplicate or in triplicate, and the quantification data were gathered on the graphs below each set of membranes. […]

[3] = molecular target: T3, human zDHHC17 (Homo sapiens, UniProt Q8IUH5); experiment: GFP-SNAP25b S-acylation in HEK293T cells co-expressing zDHHC17; format: cell-based; settings: in cellulo HEK293T, compound 25 μM; for inhibition at 25 µM: HEK-293T, read-out: SNAP25 S-acylation inhibition (%), zDHHC17; for SNAP25 S-acylation inhibition (%), zDHHC17: 25 µM
T3 construct: expressed in transfected cells; host or cells: HEK293T
Method: as §1
Figure 6 Activity of TTZ-1 and TTZ-2 against SNAP25 S-acylation by human zDHHC2, zDHHC3, zDHHC7, zDHHC15, and zDHHC17 expressed in mammalian cells.A–E, HEK293T cells were transfected with a plasmid encoding GFP-SNAP25b together with either a control plasmid pEF-BOS-HA (pEF) or a plasmid encoding either HA-tagged human zDHHC2 (zD2) (A), zDHHC3 (zD3) (B), zDHHC7 (zD7) (C), zDHHC15 (zD15) (D), or zDHHC17 (zD17) (E) for 24 h. Cells were then preincubated for 4 h with TTZ-1 or TTZ-2 (25 μM final) or DMSO control before metabolic labeling with 100 μM C16:0-azide for 4 h. Cells were lysed, and proteins having incorporated C16:0-azide were labeled by click chemistry with an alkyne-IR800 dye. Protein samples were then resolved by SDS-PAGE and transferred to nitrocellulose membranes that were first stained with an infrared-680 total protein stain. Membranes were then destained and probed with an anti-HA antibody (IR680), followed by an anti-GFP antibody (IR680). Representative images are shown, and panels are presented in the following order (from top to bottom): click chemistry signal (Click [IR800]), GFP and HA immunoblots (IR680), and Total Protein Stain (IR680). Positions of the molecular mass markers (in kilodalton) are indicated on the right side of the membranes. Three independent experiments were performed either in duplicate or in triplicate, and the quantification data were gathered on the graphs below each set of membranes. […] Filled circles represent individual samples. […] Filled circles represent individual samples. Statistical analysis (ANOVA) was performed to test whether there was a significant difference between the zDHHC expression of cells treated with DMSO as a control versus similar samples treated with TTZ-1 or TTZ-2 (∗∗p < 0.01). F, samples from A, B, C, D, and E (expressing GFP-SNAP25 and HA-tagged zDHHC enzymes and treated with DMSO) were loaded on an SDS-PAGE gel and transferred to a nitrocellulose membrane. The membrane was probed for the expression of the HA-tagged enzymes with an anti-HA antibody (IR680). […]

T3 sequence (Q8IUH5 whole entry): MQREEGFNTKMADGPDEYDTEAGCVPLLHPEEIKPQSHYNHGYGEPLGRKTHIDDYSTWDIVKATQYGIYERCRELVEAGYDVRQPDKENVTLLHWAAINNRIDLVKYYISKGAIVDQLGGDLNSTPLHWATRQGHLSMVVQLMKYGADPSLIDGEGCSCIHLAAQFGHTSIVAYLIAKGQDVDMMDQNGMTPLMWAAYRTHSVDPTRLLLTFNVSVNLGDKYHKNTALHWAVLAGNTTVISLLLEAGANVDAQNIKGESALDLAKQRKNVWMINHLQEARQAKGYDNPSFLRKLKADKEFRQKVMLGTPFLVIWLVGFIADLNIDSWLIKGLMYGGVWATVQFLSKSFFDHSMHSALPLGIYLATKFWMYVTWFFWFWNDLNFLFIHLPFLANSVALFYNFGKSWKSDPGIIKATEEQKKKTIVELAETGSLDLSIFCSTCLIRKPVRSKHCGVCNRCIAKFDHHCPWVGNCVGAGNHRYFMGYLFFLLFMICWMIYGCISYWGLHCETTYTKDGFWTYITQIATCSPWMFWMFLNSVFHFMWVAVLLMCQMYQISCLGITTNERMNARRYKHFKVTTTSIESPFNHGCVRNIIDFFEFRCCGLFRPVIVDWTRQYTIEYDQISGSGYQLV

SMILES | inhibition at 3 µM [1] [%] | inhibition at 10 µM [1] [%] | IC50 [1] [µM] | SNAP25 S-acylation by purified zDHHC2, SDS-PAGE and Western blotting [1] | inhibition at 25 µM [2] [%] | inhibition at 25 µM [3] [%] | SNAP25 S-acylation inhibition (%), zDHHC17 [3] [%] | SNAP25 S-acylation inhibition (%), zDHHC3 [2]
O=C(Nc1cccc2c1OC(c1nnn[nH]1)CN2)c1ccc(OCCCCc2ccccc2)cc1 (stereo not drawn) [TTZ-2, N-(2-(1H-Tetrazol-5-yl)-3,4-dihydro-2H-benzo[b][1,4]oxazin-8-yl)-4-(4-phenylbutoxy)benzamide] | 64 | 81 | 1.3 | confirmed the inhibitory activity | 19 ± 3 | 35 to 40 | 39 ± 7 | 
CCCCCCCOc1ccc(C(=O)Nc2cccc3c2OC(c2nnn[nH]2)CN3)cc1 (stereo not drawn) [TTZ-1, N-(2-(1H-Tetrazol-5-yl)-3,4-dihydro-2H-benzo[b][1,4]oxazin-8-yl)-4-(heptyloxy)benzamide] | 30 | 77 | 4.7 | confirmed the inhibitory activity | 9 ± 4 | 35 to 40 | 36 ± 7 | no significant effect
